molecular target: 3CL Protease (Severe acute respiratory syndrome coronavirus 2, UniProt P0DTD1); experiment: 3CL Protease enzymatic activity assay (BPS Bioscience Assay Kit #78043-1, fluorescence); type: biochemical, SARS-CoV-2; details: Table A; 30 min preincubation, 40 μM substrate, 4 hours at room temperature; read-out: IC50, nM (3CL Protease enzymatic activity)
Description: For determination of 3CL Protease enzymatic activity was used Assay Kit of BPS Bioscience, San Diego, CA (Catalog #78043-1).
All samples and controls should be tested in duplicate. • 1) Just before use, dilute 0.5 M DTT 500 times into the 3CL Protease Assay Buffer to obtain a DTT concentration of 1 mM. For example, add 10 μl of 0.5 M DTT to 5 ml of assay buffer. Prepare enough DTT-containing buffer as required for the assay. Store the remaining assay buffer at −20° C. • 2) Thaw the 3CL Protease on ice. Briefly spin the tube containing the enzyme to recover the full content of the tube. Note: 3CL Protease enzyme is sensitive to freeze/thaw cycles. […] Note: The exact concentration and volume of enzyme is lot-specific and will be indicated on the tube. Calculate required dilution from the information in the tube. It may be desirable to dilute the enzyme serially to avoid using large amounts of protease assay buffer for the dilution. • 4) Add 30 μl of diluted 3CL Protease to the wells designated as “Positive Control,” “Inhibitor Control,” and “Test Inhibitor.” Add 30 μl of Assay Buffer (containing 1 mM DTT) to the “Blank” wells. • 5) Dilute the 50 μg GC376 in 200 μl of Assay Buffer to obtain a 500 μM solution. Add 10 μl of GC376 (500 μM) to the wells labeled “Inhibitor Control”. Aliquot and store the remaining solution at −80° C. • 6) Prepare the Test Inhibitor. The final concentration of DMSO in the assay should not exceed 1%. If the Test Inhibitor is dissolved in DMSO, make a 100-fold higher concentration of the compound than the highest desired concentration. Then make a 20-fold dilution in 1× Assay Buffer (containing DTT). At this step the compound concentration is 5-fold higher than the final concentration. If the test inhibitor is dissolved in water, make a 5-fold higher concentration of the test compound than the final desired concentration in the Assay buffer (containing DTT). Add 10 μl of Test Inhibitor to each well designated “Test Inhibitor”. • 7) Diluent Solution (no inhibitor): add 10 μl of assay buffer (if the test compound is water soluble and was diluted in assay buffer) or 10 μl of 5% DMSO diluted in assay buffer (if DMSO was used to dissolve the test inhibitor) to “Blank” and “Positive Control” wells.
• 8) Preincubate for 30 min at room temperature with slow shaking. • 9) Dilute the 25 μl of 3CL Protease substrate (10 mM) in 1.25 ml of the Assay Buffer containing DTT, to make a […] solution. The final concentration of the 3CL Protease substrate in a 50 μl reaction is 40 μM. • 10) Start the reaction by adding 10 μl of the substrate solution to all the wells. Seal the plate with the plate sealer and incubate for 4 hours at room temperature with slow shaking. • 11) Measure the fluorescence intensity in a microtiter plate-reader fluorometer (Tecan Spark Cyto) capable of excitation at a wavelength 360 nm and detection of emission at a wavelength 460 nm. The fluorescence intensity can also be measured kinetically. The “Blank” value is subtracted from all other values. • The % inhibition was then used to calculate the IC50 values.

Compared with COC(=O)N[C@@H](C(=O)N1CC2C(C1C(=O)N[C@@H](C#N)Cc1cc3cc(C)ccc3[nH]c1=O)C2(C)C)C(C)(C)C (stereo in doubt) [Compound 200, Methyl N-[(1R)-1-[(1S)-2-[[(1R)-1-cyano-2-(6-methyl-2-oxo-1H-quinolin-3-yl)ethyl]carbamoyl]-6,6-dimethyl-3-azabicyclo[3.1.0]hexane-3-carbonyl]-2,2-dimethyl-propyl]carbamate], CCOC(=O)N[C@@H](C(=O)N1CC2C(C1C(=O)N[C@@H](C#N)Cc1cc3cc(C)ccc3[nH]c1=O)C2(C)C)C(C)(C)C (stereo in doubt) [Compound 201, Ethyl N-[(1R)-1-[(1S)-2-[[(1R)-1-cyano-2-(6-methyl-2-oxo-1H-quinolin-3-yl)ethyl]carbamoyl]-6,6-dimethyl-3-azabicyclo[3.1.0]hexane-3-carbonyl]-2,2-dimethyl-propyl]carbamate] is higher in IC50: less than 50 nM for the first, 50 to 100 nM for the second. The first is the more potent here.

First: Cc1ccc2[nH]c(=O)c(C[C@H](C#N)NC(=O)C3C4C(CN3C(=O)[C@H](NC(=O)OC(C)C)C(C)(C)C)C4(C)C)cc2c1 (stereo in doubt) [Compound 202, Isopropyl N-[(1R)-1-[(1S)-2-[[(1R)-1-cyano-2-(6-methyl-2-oxo-1H-quinolin-3-yl)ethyl]carbamoyl]-6,6-dimethyl-3-azabicyclo[3.1.0]hexane-3-carbonyl]-2,2-dimethyl-propyl]carbamate]
Second: Cc1ccc2[nH]c(=O)c(C[C@H](C#N)NC(=O)C3C4C(CN3C(=O)[C@H](NC(=O)C(C)C)C(C)(C)C)C4(C)C)cc2c1 (stereo in doubt) [Compound 204, (1S)—N-[(1R)-1-cyano-2-(6-methyl-2-oxo-1H-quinolin-3-yl)ethyl]-3-[(2R)-3,3-dimethyl-2-(2-methylpropanoylamino)butanoyl]-6,6-dimethyl-3-azabicyclo[3.1.0]hexane-2-carboxamide]
The IC50 of the first is higher: 100 to 250 nM for the first, 50 to 100 nM for the second. The second is the more potent here.

First: Cc1ccc2[nH]c(=O)c(C[C@H](C#N)NC(=O)C3C4C(CN3C(=O)[C@H](NS(=O)(=O)C3CC3)C(C)(C)C)C4(C)C)cc2c1 (stereo in doubt) [Compound 203, (1S)—N-[(1R)-1-Cyano-2-(6-methyl-2-oxo-1H-quinolin-3-yl)ethyl]-3-[(2R)-2-(cyclopropylsulfonylamino)-3,3-dimethyl-butanoyl]-6,6-dimethyl-3-azabicyclo[3.1.0]hexane-2-carboxamide]
Second: Cc1ccc2[nH]c(=O)c(C[C@@H](C#N)NC(=O)[C@@H]3[C@H]4[C@H](CN3C(=O)[C@@H](NC(=O)C(F)(F)F)C(C)(C)C)C4(C)C)cc2c1 [Compound 113, (1S,2S,5S)—N-[(1S)-1-cyano-2-(6-methyl-2-oxo-1H-quinolin-3-yl)ethyl]-3-[(2S)-3,3-dimethyl-2-[(2,2,2-trifluoroacetyl)amino]butanoyl]-6,6-dimethyl-3-azabicyclo[3.1.0]hexane-2-carboxamide]
The IC50 of the first is higher: 50 to 100 nM for the first, less than 50 nM for the second. The second is the more potent here.

First: Cc1ccc2[nH]c(=O)c(C[C@H](C#N)NC(=O)[C@@H]3[C@H]4[C@H](CN3C(=O)[C@@H](NC(=O)C(F)(F)F)C(C)(C)C)C4(C)C)cc2c1 [Compound 114, (1S,2S,5S)—N-[(1R)-1-cyano-2-(6-methyl-2-oxo-1H-quinolin-3-yl)ethyl]-3-[(2S)-3,3-dimethyl-2-[(2,2,2-trifluoroacetyl)amino]butanoyl]-6,6-dimethyl-3-azabicyclo[3.1.0]hexane-2-carboxamide]
Second: Cc1cc2cc(C[C@@H](C#N)NC(=O)[C@@H]3[C@@H]4[C@H](CN3C(=O)[C@@H](NC(=O)C(F)(F)F)C(C)(C)C)C4(C)C)c(=O)[nH]c2cc1F [Compound 176, (1R,2S,5S)—N—((S)-1-Cyano-2-(7-fluoro-6-methyl-2-oxo-1,2-dihydroquinolin-3-yl)ethyl)-3-((S)-3,3-dimethyl-2-(2,2,2-trifluoroacetamido)butanoyl)-6,6-dimethyl-3-azabicyclo[3.1.0]hexane-2-carboxamide]
The IC50 of the first is higher: no less than 1000 nM for the first, 50 to 100 nM for the second.

Going from Cc1ccc2c(c1)CC(C[C@@H](C#N)NC(=O)[C@@H]1[C@@H]3[C@H](CN1C(=O)[C@@H](NC(=O)C(F)(F)F)C(C)(C)C)C3(C)C)C(=O)N2 (stereo partly drawn) [Compound 120, (1R,2S,5S)—N-[(1S)-1-Cyano-2-(6-methyl-2-oxo-3,4-dihydro-1H-quinolin-3-yl)ethyl]-3-[(2S)-3,3-dimethyl-2-[(2,2,2-trifluoroacetyl)amino]butanoyl]-6,6-dimethyl-3-azabicyclo[3.1.0]hexane-2-carboxamide] to CC(C)(C)[C@H](NC(=O)C(F)(F)F)C(=O)N1C[C@H]2[C@@H]([C@H]1C(=O)N[C@@H](C#N)Cc1cc3cnccc3[nH]c1=O)C2(C)C [Compound 173, (1R,2S,5S)—N—((R)-1-Cyano-2-(2-oxo-1,2-dihydro-1,6-naphthyridin-3-yl)ethyl)-3-((S)-3,3-dimethyl-2-(2,2,2-trifluoroacetamido)butanoyl)-6,6-dimethyl-3-azabicyclo[3.1.0]hexane-2-carboxamide], the IC50 rises from less than 50 nM to no less than 1000 nM. The first is the more potent here.

CC(C)(C)[C@H](NS(C)(=O)=O)C(=O)N1C[C@H]2[C@H]([C@H]1C(=O)NC(C#N)Cc1cc3cnccc3[nH]c1=O)C2(C)C (stereo partly drawn) [Compound 130, (1S,2S,5S)-N-[1-cyano-2-(2-oxo-1H-1,6-naphthyridin-3-yl)ethyl]-3-[(2S)-2-(methanesulfonamido)-3,3-dimethyl-butanoyl]-6,6-dimethyl-3-azabicyclo[3.1.0]hexane-2-carboxamide] and CC(C)(C)[C@H](NC(=O)C(F)(F)F)C(=O)N1C[C@H]2[C@@H]([C@H]1C(=O)N[C@H](C#N)Cc1cc3cnccc3[nH]c1=O)C2(C)C [Compound 174, (1R,2S,5S)—N—((S)-1-Cyano-2-(2-oxo-1,2-dihydro-1,6-naphthyridin-3-yl)ethyl)-3-((S)-3,3-dimethyl-2-(2,2,2-trifluoroacetamido)butanoyl)-6,6-dimethyl-3-azabicyclo[3.1.0]hexane-2-carboxamide] cannot be ordered by IC50: less than 50 nM for the first, less than 50 nM for the second.

First: Cc1ccc2[nH]c(=O)c(CC(C#N)NC(=O)[C@@H]3[C@H]4[C@H](CN3C(=O)[C@@H](Nc3ccnc(C)n3)C(C)(C)C)C4(C)C)cc2c1 (stereo partly shown) [Compound 153, 3-[3,3-Dimethyl-2-(2-methyl-pyrimidin-4-ylamino)-butyryl]-6,6-dimethyl-3-aza-bicyclo[3.1.0]hexane-2-carboxylic acid [1-cyano-2-(6-methyl-2-oxo-1,2-dihydro-quinolin-3-yl)-ethyl]-amide]
Second: COc1cc2[nH]c(=O)c(C[C@@H](C#N)NC(=O)[C@@H]3[C@@H]4[C@H](CN3C(=O)[C@@H](NC(=O)C(F)(F)F)C(C)(C)C)C4(C)C)cc2cc1C [Compound 175, (1R,2S,5S)—N-[(1S)-1-Cyano-2-(7-methoxy-6-methyl-2-oxo-1H-quinolin-3-yl)ethyl]-3-[(2S)-3,3-dimethyl-2-[(2,2,2-trifluoroacetyl)amino]butanoyl]-6,6-dimethyl-3-azabicyclo[3.1.0]hexane-2-carboxamide]
The IC50 of the first is higher: no less than 1000 nM for the first, 50 to 100 nM for the second.

First: Cc1ccc2[nH]c(=O)c(CC(C#N)NC(=O)[C@H](Cc3ccccc3)NC(=O)[C@@H](NS(=O)(=O)CC(F)(F)F)C(C)(C)C)cc2c1 (stereo partly drawn) [Compound 164, (2S)—N-((2S)-1-((1-Cyano-2-(6-methyl-2-oxo-1,2-dihydroquinolin-3-yl)ethyl)amino)-1-oxo-3-phenylpropan-2-yl)-3,3-dimethyl-2-((2,2,2-trifluoroethyl)sulfonamido)butanamide]
Second: Cc1ccc2[nH]c(=O)c(CC(C#N)NC(=O)[C@H](Cc3cc(F)c(F)cc3F)NC(=O)[C@@H](NS(=O)(=O)CC(F)(F)F)C(C)(C)C)cc2c1 (stereo partly drawn) [Compound 166, (2S)—N-((2S)-1-((1-Cyano-2-(6-methyl-2-oxo-1,2-dihydroquinolin-3-yl)ethyl)amino)-1-oxo-3-(2,4,5-trifluorophenyl)propan-2-yl)-3,3-dimethyl-2-((2,2,2-trifluoroethyl)sulfonamido)butanamide]
The IC50 of the first is lower: 100 to 250 nM for the first, 500 to 1000 nM for the second. The first is the more potent here.

— US20260015337A1 (Trawsfynydd Therapeutics, Inc., priority 2022, published 2026)
